Results reported in paper PMC10354055, “An optimized Nurr1 agonist provides disease-modifying effects in Parkinson’s disease models” (Nature Communications, 2023).
Where “and” joins values, the source holds several entries; their conditions need not be identical. Identical values can stand only once.

How the values were obtained:
Nurr1-LBD = Nurr1-LBD (Homo sapiens, UniProt P43354); experiment: TR-FRET competition assay with HCQFluo; format: binding; details: Fig. 1i
Method: TR-FRET assay was performed in PPI Terbium (Tb) detection buffer (PerkinElmer) and contained 0.2 µM of Nurr1-LBD, 0.5 µM of fluorescence-labeled hydroxy-CQ (HCQFluo; Proimaging) and serial concentrations of CQ, 4A7C-301 or RA (10^−4–10^6 nM). Rabbit anti-Nurr1 antibody (3 nM; prepared in our lab) and anti-rabbit IgG-Tb (1:400; Cisbio, 61PARTAF) were included in the assay solution as a donor complex. Assay solutions were loaded in a 384-well OptiPlate™ (PerkinElmer). After 2 h incubation in the dark at room temperature, the FRET signal was measured by excitation at 340 nm and emission at 520 nm for fluorescein and 495 nm for Tb using a VICTOR Nivo plate reader (PerkinElmer). Data were fit using the non-linear regression program in GraphPad Prism version 8.0.2.

N27-A cells = experiment: Autophagolysosome (APL) formation assay, mRFP-GFP-LC3, N27-A cells; format: cell-based, rat
Method: HeLa and N27-A cells were transfected with tandem mRFP-GFP-LC3 (Addgene) plasmid using Lipofectamine 2000 (Invitrogen) in 24-well plates. After 24 h, cells were incubated in starvation medium (Earle’s Balanced Salt Solution, EBSS; Lonza) containing bafilomycin A1 (BafA1, 10 nM), CQ (20 µM), or 4A7C-301 (1 µM) for 6 h and then fixed with 4% formaldehyde for fluorescence detection. Images were taken using a KEYENCE microscope and red (mRFP) LC3 dots and yellow (mRFP+GFP) LC3 dots were counted from three independent wells for each treatment group. 10 cells were randomly selected and counted from each well and a total of 30 cells were analyzed for each treatment group in both HeLa and N27-A cells.

Nurr1 protein = Nurr1 protein level, Western blot, MN9D cells with MPP+ or αSyn overexpression; format: cell-based, mouse; details: against MPP+ and αSynWT overexpression
Method: Experiments were confirmed by duplicate measurements of the same sample. Quantification of immunoreactive bands was performed using ImageJ software (NIH, Bethesda, MD, USA) and expressed as a relative ratio against β-actin.
(§1) Lenti-GFP, -αSyn^WT, and -αSyn^A53T viruses were generated separately by co-transfecting each shuttle plasmid with lentivirus packaging plasmids into HEK293T cells using lipofectamine 2000 (Invitrogen). Briefly, 2 μg each FUW inducible shuttle plasmid, 2 μg FUW-rtTA, 2 μg psPax2 and 1.5 μg MD2.G were mixed and transfected into HEK293T cells. After 48 h, viral supernatants were collected and centrifuged at 1000g for 10 min, and subsequently filtered through a 0.45 μm filter. Lentiviruses were transduced into MN9D cells with 8 μg/ml of polybrene and the viral supernatant was removed and replaced with fresh medium a day after transduction.

MN9D cells = experiment: Dopaminergic gene expression (TH, DAT, AADC, VMAT2, c-Ret), qRT-PCR, MN9D cells with MPP+; format: cell-based, mouse; details: MN9D, decreased by MPP+
Method: (§2) Total RNA was extracted using the GeneJET RNA Purification Kit (Thermo Fisher Scientific) and 100 ng of RNA was subjected to cDNA synthesis using Invitrogen Superscript cDNA Synthesis Kit (Invitrogen) according to the manufacturer’s protocol. qRT-PCR was performed using a CFX Connect Real-Time System (Bio-Rad) in a 20 μl volume mixture containing 2X SsoAdvanced Universal SYBR Green Supermix (Bio-Rad), 100 ng/μl of forward and reverse primers, and 1 μl of cDNA sample. Gene expression levels were quantified by the 2^∆∆CT method (Ct of target gene—Ct of glyceraldehyde-3-phosphate dehydrogenase (GAPDH). The following primers were used for qRT-PCR: TH forward: 5′-[…]-3′, reverse: 5′-[…]-3′; DAT forward: 5′-[…]-3′, reverse: 5′-[…]-3′; AADC forward: 5′-[…]-3′, reverse: 5′-[…]-3′; VMAT2 forward: 5′-[…]-3′, reverse: 5′-[…]-3′; c-Ret forward: 5′-[…]-3′, reverse: 5′-[…]-3′; TNFα forward: 5′-[…]-3′; reverse: 5′-[…]-3′; GAPDH, forward 5′-[…]-3′, reverse 5′-[…]-3′.

[1] = tested on: AAV-αSyn-induced male mice; experiment: IHC/stereology of TH+ and NeuN+ neurons and TH+ fibers, AAV-αSyn-induced mice; format: in vivo, mouse; details: αSynWT-mice
Excerpt: Adeno-associated viruses (AAVs) expressing GFP only or αSyn (wild-type or A53T) were kindly provided by Dr. Yoon Seong Kim from the University of Central Florida. Recombinant AAV vectors were produced using modified pAAV-IRES-hrGFP (Agilent) to express wild-type and mutant human αSyn under control of the CMV promoter. Viral particles (AAV2) were produced at the University of Iowa Viral Vector Core according to standard operating procedures (https://medicine.uiowa.edu/vectorcore/). […] AAV vectors were delivered into the substantia nigra unilaterally by stereotaxic surgery.
Images were acquired using a KEYENCE microscope and quantified as the number or optical density of immunoreactive cells using ImageJ software.
The numbers of TH^+ DA neurons, NeuN^+ neurons, pS129 αSyn^+ cells in the SN and Iba-1^+ microglia in the SN and striatum were stereologically counted in six coronal sections (30 µm thickness) taken every 6th section (180 µm intervals) for each brain. The boundaries of the SN and striatum were delimited at low magnification (4X) to estimate each total area. Immunoreactive cells were counted with images taken at high magnification (×40) by a single blinded investigator. The group mean of the total number of immunoreactive cells from each brain was transformed as percentage of the number in the control group (%). For AAV-αSyn-induced mice, the group mean of the total number of cells in the ipsilateral side was transformed as a percentage of that observed in the contralateral side.

Nurr1 mRNA = Nurr1 mRNA level, qRT-PCR, MN9D cells; format: cell-based, mouse; details: MPP+ or αSyn overexpression
Method: as §2, §1

[2] = Figure 3b, mRFP-GFP-LC3, individual cells (30 per treatment)

Sequence of Nurr1-LBD (P43354 360-595 limits assumed, species assumed): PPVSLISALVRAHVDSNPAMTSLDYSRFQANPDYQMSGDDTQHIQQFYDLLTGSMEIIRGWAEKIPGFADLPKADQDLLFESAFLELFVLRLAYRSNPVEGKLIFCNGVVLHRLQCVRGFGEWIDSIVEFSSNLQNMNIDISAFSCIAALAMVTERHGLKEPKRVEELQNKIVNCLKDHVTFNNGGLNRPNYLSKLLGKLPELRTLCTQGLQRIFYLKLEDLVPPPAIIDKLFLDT

SMILES: CCN(CC)CCCC(C)Nc1ccnc2cc(Cl)ccc12 (centres unmarked) [CQ, chloroquine]
- Interaction [HTRF] (Nurr1-LBD; 0.05 µM): 3273.3930 and 3465.5840 and 3369.4880
- Interaction [HTRF] (Nurr1-LBD; 0.1 µM): 3399.0860 and 3151.8330 and 3275.4590
- Interaction [HTRF] (Nurr1-LBD; 0.5 µM): 3111.7350 and 2901.1980 and 3006.4660
- Interaction [HTRF] (Nurr1-LBD; 1 µM): 2895.7250 and 2781.2580 and 2838.4910
- Interaction [HTRF] (Nurr1-LBD; 5 µM): 2113.6450 and 1994.2770 and 2053.9610
- Interaction [HTRF] (Nurr1-LBD; 10 µM): 1574.8930 and 1346.8690 and 1460.8810
- Interaction [HTRF] (Nurr1-LBD; 50 µM): 1485.2580 and 1344.1380 and 1414.6980
- Interaction [HTRF] (Nurr1-LBD; 100 µM): 1202.4890 and 1355.5820 and 1279.0350
- Interaction [HTRF] (Nurr1-LBD; 200 µM): 1193.4910 and 1136.9480 and 1165.2200
- IC50 (Nurr1-LBD; competition with HCQFluo): 2.33 µM and 2 µM
- LC3 dots/cell, Red LC3 dots (N27-A cells; [2]): 6 dots/cell (4×) and 7 dots/cell (5×) and 11 dots/cell (6×) and 10 dots/cell (2×) and 5 dots/cell (3×) and 15 dots/cell (2×) and 4 dots/cell (2×) and 8 dots/cell (2×) and 13 dots/cell and 17 dots/cell and 9 dots/cell and 2 dots/cell
- LC3 dots/cell, Yellow LC3 dots (N27-A cells; [2]): 25 dots/cell (2×) and 30 dots/cell (6×) and 28 dots/cell (3×) and 20 dots/cell and 17 dots/cell (3×) and 21 dots/cell (4×) and 19 dots/cell and 22 dots/cell (2×) and 23 dots/cell (2×) and 18 dots/cell (2×) and 16 dots/cell and 29 dots/cell (2×) and 31 dots/cell
- autophagy process (in words) (N27-A cells; N27-A, EBSS, CQ 20 µM, 4A7C-301 1 µM): inhibits
- Nurr1 protein levels (in words) (Nurr1 protein): significantly restored
- dopaminergic gene expression (in words) (MN9D cells): significantly rescued
- loss of TH+ and NeuN+ neurons and TH+ fibers (in words) [1]: partially prevented
- Nurr1 mRNA levels (in words) (Nurr1 mRNA): did not alter
